Legend:
DNA topoisomerase 2 = biological target: T1, DNA topoisomerase 2 (Saccharomyces cerevisiae S288c, UniProt P06786); assay: Inhibition of Saccharomyces cerevisiae DNA topoisomerase 2
T1 sequence (P06786 whole entry): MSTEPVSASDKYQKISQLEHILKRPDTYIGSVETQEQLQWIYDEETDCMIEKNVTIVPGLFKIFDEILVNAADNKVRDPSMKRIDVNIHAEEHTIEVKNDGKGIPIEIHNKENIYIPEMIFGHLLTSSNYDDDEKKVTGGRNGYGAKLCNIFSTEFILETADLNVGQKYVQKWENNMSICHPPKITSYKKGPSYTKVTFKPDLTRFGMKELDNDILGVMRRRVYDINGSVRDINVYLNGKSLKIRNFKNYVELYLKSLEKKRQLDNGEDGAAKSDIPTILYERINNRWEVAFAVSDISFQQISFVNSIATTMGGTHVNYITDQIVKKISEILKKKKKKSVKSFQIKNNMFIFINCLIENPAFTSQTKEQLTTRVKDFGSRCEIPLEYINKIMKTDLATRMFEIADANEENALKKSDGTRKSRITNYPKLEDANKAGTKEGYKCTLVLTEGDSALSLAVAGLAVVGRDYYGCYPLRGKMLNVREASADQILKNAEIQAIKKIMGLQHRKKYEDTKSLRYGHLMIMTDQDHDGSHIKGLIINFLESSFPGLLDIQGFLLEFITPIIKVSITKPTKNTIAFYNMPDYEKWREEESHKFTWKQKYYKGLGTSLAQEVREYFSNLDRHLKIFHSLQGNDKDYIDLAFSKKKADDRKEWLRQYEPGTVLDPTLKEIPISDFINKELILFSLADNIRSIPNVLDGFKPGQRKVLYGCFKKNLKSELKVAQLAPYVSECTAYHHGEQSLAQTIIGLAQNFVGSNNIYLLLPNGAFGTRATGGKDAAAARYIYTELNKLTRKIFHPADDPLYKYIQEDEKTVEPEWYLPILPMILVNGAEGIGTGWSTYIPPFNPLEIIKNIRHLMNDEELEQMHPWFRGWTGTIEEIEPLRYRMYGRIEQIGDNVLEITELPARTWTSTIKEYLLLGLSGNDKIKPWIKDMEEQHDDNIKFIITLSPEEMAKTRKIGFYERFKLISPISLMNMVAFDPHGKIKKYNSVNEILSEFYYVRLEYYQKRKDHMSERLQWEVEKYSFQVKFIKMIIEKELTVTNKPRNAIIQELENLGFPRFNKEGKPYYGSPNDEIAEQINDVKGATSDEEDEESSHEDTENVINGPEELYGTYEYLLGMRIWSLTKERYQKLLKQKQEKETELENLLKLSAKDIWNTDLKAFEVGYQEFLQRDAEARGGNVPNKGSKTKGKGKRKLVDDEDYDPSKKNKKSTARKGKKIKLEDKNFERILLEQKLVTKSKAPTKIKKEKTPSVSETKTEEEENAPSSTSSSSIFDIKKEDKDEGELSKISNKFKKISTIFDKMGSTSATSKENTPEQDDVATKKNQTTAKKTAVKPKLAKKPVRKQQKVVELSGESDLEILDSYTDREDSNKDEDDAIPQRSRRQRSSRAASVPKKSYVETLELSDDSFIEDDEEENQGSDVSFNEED

[1] = biological target: Apoptosis regulator Bcl-2 (Homo sapiens, UniProt P10415); assay: Displacement of NLWAAQRYGRELRRMSD-K(FITC)-FVD from Bcl-2 (unknown origin) by fluorescence polarization assay
DNA topoisomerase 1 = biological target: T2, DNA topoisomerase 1 (Homo sapiens, UniProt P11387); assay: Inhibition of DNA topoisomerase 1 (unknown origin)
T2 sequence (P11387 whole entry): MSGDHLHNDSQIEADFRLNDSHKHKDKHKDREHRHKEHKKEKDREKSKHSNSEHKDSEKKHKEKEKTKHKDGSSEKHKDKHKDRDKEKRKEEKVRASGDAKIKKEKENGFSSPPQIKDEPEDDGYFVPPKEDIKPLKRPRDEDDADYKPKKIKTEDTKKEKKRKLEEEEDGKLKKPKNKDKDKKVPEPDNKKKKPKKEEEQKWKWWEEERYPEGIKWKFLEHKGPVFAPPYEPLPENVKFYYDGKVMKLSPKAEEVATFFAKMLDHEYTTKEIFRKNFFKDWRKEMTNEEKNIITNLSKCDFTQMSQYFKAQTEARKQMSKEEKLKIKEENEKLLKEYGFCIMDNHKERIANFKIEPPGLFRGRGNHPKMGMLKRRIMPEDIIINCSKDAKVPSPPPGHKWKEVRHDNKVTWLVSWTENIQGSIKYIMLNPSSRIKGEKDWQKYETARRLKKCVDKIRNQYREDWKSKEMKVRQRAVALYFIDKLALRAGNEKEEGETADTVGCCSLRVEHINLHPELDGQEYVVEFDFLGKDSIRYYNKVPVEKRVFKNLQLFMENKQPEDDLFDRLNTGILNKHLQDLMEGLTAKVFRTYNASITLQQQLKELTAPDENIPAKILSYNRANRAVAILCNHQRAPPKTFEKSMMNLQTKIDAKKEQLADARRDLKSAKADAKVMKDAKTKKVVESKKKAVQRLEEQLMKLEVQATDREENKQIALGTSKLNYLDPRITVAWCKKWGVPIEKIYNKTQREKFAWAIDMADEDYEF

[2] = Binding affinity to Homo sapiens (human) G-quadruplex DNA assessed as formation of G4TER2 mutant complex after 2 min by PCR stop assay
[3] = Binding affinity to Homo sapiens (human) G-quadruplex DNA assessed as formation of VNTR6-1 mutant complex after 2 min by PCR stop assay
[4] = Binding affinity to Homo sapiens (human) G-quadruplex DNA assessed as formation of G4TER1 mutant complex after 2 min by PCR stop assay

Apoptosis regulator Bcl-2, sequence (P10415 whole entry): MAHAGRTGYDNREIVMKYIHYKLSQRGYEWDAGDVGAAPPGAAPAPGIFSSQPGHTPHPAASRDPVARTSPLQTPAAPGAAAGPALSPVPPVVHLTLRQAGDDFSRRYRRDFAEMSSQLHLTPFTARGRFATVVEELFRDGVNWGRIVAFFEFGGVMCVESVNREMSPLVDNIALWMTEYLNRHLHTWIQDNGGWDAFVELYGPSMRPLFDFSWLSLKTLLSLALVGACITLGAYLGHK

Compound	Ki [1] [µM]	also measured
O=C(O[C@@H]1Cc2c(O)cc(O)cc2O[C@@H]1c1cc(O)c(O)c(O)c1)c1cc(O)c(O)c(O)c1 [EPIGALOCATECHIN GALLATE]	0.335	IC50 (DNA topoisomerase 2): 3000 µM
Oc1cc(O)c2c(c1)O[C@H](c1ccc(O)c(O)c1)[C@H](O)C2 [(-)-EPICATECHIN]	> 100	
O=c1c(O)c(-c2cc(O)c(O)c(O)c2)oc2cc(O)cc(O)c12 [MYRICETIN]		IC50 (DNA topoisomerase 1): 37.4 µM
O=C(O[C@@H]1Cc2c(O)cc(O)cc2O[C@@H]1c1ccc(O)c(O)c1)c1cc(O)c(O)c(O)c1 [EPICATECHIN GALLATE]	0.4	
Oc1cc(O)c2c(c1)O[C@H](c1cc(O)c(O)c(O)c1)[C@H](O)C2 [EPIGALLOCATECHIN]	> 100	
O=c1c(O)cccc2c([C@H]3Oc4cc(O)cc(O)c4C[C@H]3O)cc(O)c(O)c12 [THEAFLAVANIN]	0.286	
O=C(O[C@@H]1Cc2c(O)cc(O)cc2O[C@H]1c1ccc(O)c(O)c1)c1cc(O)c(O)c(O)c1 [CATECHIN GALLATE]	0.23	
Oc1cc(O)c2c(c1)O[C@H](c1ccc(O)c(O)c1)[C@@H](O)C2 [CATECHIN]	> 100	
Cc1oc2nc1-c1nc(co1)-c1nc(co1)-c1nc(co1)-c1nc(co1)-c1nc(co1)C1=NC(CS1)c1nc-2c(C)o1 (centres undefined) [TELOMESTATIN]		IC50 [2]: 10 µM; IC50 [3]: 9 µM; IC50 [4]: 10 µM
Oc1cc(O)c2c(c1)O[C@H](c1cc(O)c(O)c(O)c1)[C@@H](O)C2 [GALLOCATECHIN]	> 100	
O=C(O[C@@H]1Cc2c(O)cc(O)cc2O[C@H]1c1cc(O)c(O)c(O)c1)c1cc(O)c(O)c(O)c1 [GALLOCATECHIN GALLATE]	0.235	

Reference: ChEMBL document CHEMBL3046684, “Molecular docking study on anticancer activity of plant-derived natural products” (Med Chem Res, 2010)
